From patent US20240076347A1, “METHODS FOR PREVENTING FUNGAL INFECTIONS” (Cidara Therapeutics, Inc., priority 2016, published 2024)
Numbered stars: 1 amine (or outer) side, 2 acyl side, 3 side chain; on linkers, the order of the positions; unused ones are H or OH. Bridge positions count the residues as written; N and C are the ends. Square brackets hold non-standard residues; d marks the D form. Peptide text beside a SMILES is read from it. * marks the point of attachment. ξ: configuration not given here. Orn(4R-OH,5R-OCH2CH2NMe3+) = C[N+](C)(C)CCO[C@@H](N[*:3])[C@H](O)C[C@H](N[*:1])C(=O)[*:2]; pTerphenylCO(4''-OnC5H11) = CCCCCOc1ccc(-c2ccc(-c3ccc(C(=O)*)cc3)cc2)cc1; hTyr(3S-OH,4S-OH) = N[C@H](C(=O)O)[C@H](O)[C@@H](O)c1ccc(O)cc1; X1 = C[C@H]1CN([*:1])C(C(=O)[*:2])C1O; Hyp = O=C(O)[C@@H]1C[C@@H](O)CN1; ξT = CC(O)C(N)C(=O)O

Legend:
C. parapsilosis = assay: Neutropenic murine disseminated candidiasis model, PK/PD target determination; type: in vivo, Candida parapsilosis; details: for Static dose: single IP dose, 168 h
Protocol: Infection model. A neutropenic, murine, disseminated candidiasis model was used for the treatment studies. The mice were rendered neutropenic (polymorphonuclear cell count, <100/mm3) by injecting 150 mg/kg of cyclophosphamide (Mead Johnson Pharmaceuticals, Evansville, IN) subcutaneously 4 days before infection, 100 mg/kg of cyclophosphamide 1 day before infection, and additional cyclophosphamide doses (100 mg/kg) on Day 2 and Day 4 after infection to ensure neutropenia throughout the 168 h (7 d) study period. Three mice were included in each treatment and control group.
The organisms were subcultured on SDA plates 24 h prior to infection. The inoculum was prepared by placing 3 to 5 colonies into 5 ml of sterile pyrogen-free 0.15 M NaCl warmed to 35° C. The final inoculum was adjusted to a 0.6 transmittance at 530 nm. The fungal count of the inoculum determined by viable counts on SDA was 6.1±0.2 log10 CFU/ml.
Disseminated infection with the Candida strains was achieved by injection of 0.1 ml of the inoculum via the lateral tail vein 2 h prior to the start of antifungal therapy. At the end of the study period, the animals were sacrificed by CO2 asphyxiation. The kidneys of each mouse were aseptically removed and placed in 0.15 M NaCl at 4° C. The kidneys were homogenized and serially diluted 1:10, and the aliquots were plated onto SDA for viable fungal colony counts after incubation for 24 h at 35° C. The lower limit of detection was 100 CFU/ml. The results are expressed as the mean CFU/kidney for three mice.
Treatment efficacy and pharmacodynamic target determination of CD101. Neutropenic mice were infected with one of 10 Candida strains as described above. […] Five dose levels that varied from 0.25 to 64 mg/kg were administered once in a 0.2-ml volume by IP route for the 168 h study period. Due to enhanced effect against single isolate, additional studies at 0.0156 and 0.0625 mg/kg was examined for C. glabrata 5592. Groups of three mice were used for each dosing regimen and control group. At the end of the treatment period (168 h), the mice were euthanized, and their kidneys were immediately processed for CFU determination as described above.
Data analysis. A sigmoid dose-effect (Hill) model was used to measure the in vivo potency of CD101. The efficacy endpoints included the dose level required to produce a 24 h net static effect (no change in organism burden compared to that at the start of therapy) and the dose required to achieve a 1-log10 reduction in colony counts (relative to the burden at the start of therapy), when achieved. The maximum response (Emax) was measured as the difference in the number of CFU/kidney relative to that of the untreated control animals. The doses associated with the stasis and 1-log10 endpoint for each strain was calculated using the equation: log10 D=[log10 (E/(Emax−E))/N]+log10 ED50, where D is the drug dose, E is the control growth in untreated animals, Emax is the maximal effect, Nis the slope of the dose-response relationship, and ED50 is the dose needed to achieve 50% of the maximal effect. The associated AUC/MIC targets were then calculated for each strain. […] The calculations were performed using both total and free drug concentrations. The coefficient of determination (R^2) was used to estimate the variance that might be due to regression with the PK/PD index. Kruskal-Wallis one-way analysis of variance (ANOVA) was used to determine if the differences in PK/PD targets were significant between the species.

[1] = system: Aspergillus fumigatus ATCC; assay: Prophylaxis, neutropenic ICR mouse aspergillosis model, survival; type: in vivo; details: 14 days
Protocol: Aspergillosis model: ICR mice (6/group) were rendered neutropenic by cyclophosphamide on Day −3 (6 mg/mouse), Day +1, and Day +4 (2 mg/mouse). Challenge with Aspergillus fumigatus ATCC via IV (100 μL, […] CFU/mouse) occurred on Day 0. Prior to challenge, mice were given one SC dose (5, 10 or 20 mg/kg) of CD101 on Day −5, Day −3, or Day −1. Survival was monitored for 14 days.

[2] = system: A. fumigatus clinical isolates; assay: MEC, CLSI broth microdilution (M38-A2), SENTRY clinical isolates; type: cell-based, Aspergillus fumigatus; details: 153 isolates, 2014 and 2015 SENTRY
Text: The in vitro activity of CD101 was previously evaluated as part of the SENTRY international surveillance program using CLSI broth microdilution methodology (M38-A2, M27-A3; Pfaller, et al 2017). […] These susceptibility data were then compared graphically to CD101 plasma concentrations from studies in healthy adults, adjusted for plasma protein binding. Nonclinical efficacy in a murine model of Pneumocystis pneumonia were also considered to evaluate CD101 doses for clinical investigation of antifungal prophylaxis.
The in vitro activity of CD101 was evaluated against 153 A. fumigatus clinical isolates collected as part of the 2014 and 2015 JMI international SENTRY surveillance program. Susceptibility was determined by measuring the minimal effective concentration (MEC) values in accordance with CLSI broth microdilution guidelines (M38-A2). In vivo tissue distribution of CD101 in SD rats (N=3/time up to 5 d) after a 5 mg/kg IV CD101 dose. Plasma/tissue concentrations were measured by LC-MS/MS.

[3] = system: A. fumigatus (ATCC 13073); assay: Disseminated infection of immune competent DBA/2 mice, prophylaxis, survival; type: in vivo, Aspergillus fumigatus
Protocol: A. fumigatus (ATCC 13073) growth was taken from 96 hour potato dextrose agar (PDA) and re-suspended in 0.1% Tween 20. The culture was resuspended in 1 mL cold PBS (>1.0×10^8 CFU/mL, OD620 2.3-2.8). The culture was then diluted in PBS to final cellular densities of 1.0×10^7 CFU/mL. The actual colony counts were determined by plating dilutions on PDA plates to confirm inoculation concentration. The actual inoculum count was 1.30×10^7 CFU/mL.
Groups of 6 immune competent female DBA/2 mice weighing 18±2 g were used. On Day 0, animals were inoculated (0.1 mL/mouse) by intravenous (IV) injection into the tail vein with A. fumigatus (ATCC 13073), 1.30×10^6 CFU per mouse. CD101 at 3, 10 and 30 mg/kg as prophylaxis was administered subcutaneously (SC) once starting 5, 3 or 1 day before inoculation. In addition, CD101 at 3 mg/kg SC and the reference, amphotericin B, at 3 mg/kg by intraperitoneal (IP) injection were administered one hour after infection (See Table 2).
A 50 percent or more (≥50%) increase in the survival rate compared to the vehicle control group indicates significant anti-infective activity. The health observations including body weight, hunched posture, ruffled fur, immobility and hypothermia were recorded daily for 14 days.

[4] = only two strains achieved the endpoint

CCCCCOc1ccc(-c2ccc(-c3ccc(C(=O)N[C@H]4C[C@@H](O)[C@@H](OCC[N+](C)(C)C)NC(=O)C5C(O)[C@@H](C)CN5C(=O)[C@H]([C@@H](C)O)NC(=O)[C@H]([C@H](O)[C@@H](O)c5ccc(O)cc5)NC(=O)[C@@H]5C[C@@H](O)CN5C(=O)C(C(C)O)NC4=O)cc3)cc2)cc1 (stereo partly drawn) [CD101] ({pTerphenylCO(4''-OnC5H11)}-[Orn(4R-OH,5R-OCH2CH2NMe3+)][ξT][Hyp][hTyr(3S-OH,4S-OH)]T[X1]; lactam 1-C)
Stasis 24 h Ave free drug AUC/MIC (C. parapsilosis; 20423.072): 1.39 | Stasis free drug AUC0-168 h/MIC (C. parapsilosis; 20423.072): 9.74 | Stasis total drug AUC0-168 h/MIC (C. parapsilosis; 20423.072): 1217.49 | Static dose (C. parapsilosis; 20423.072): 9.62 mg/kg | Stasis 24 h Ave free drug AUC/MIC (C. parapsilosis; 20477.048): 3.82 | Stasis free drug AUC0-168 h/MIC (C. parapsilosis; 20477.048): 26.72 | Stasis total drug AUC0-168 h/MIC (C. parapsilosis; 20477.048): 3339.42 | Static dose (C. parapsilosis; 20477.048): 52.96 mg/kg | median stasis 24 h free drug AUC/MIC target (C. parapsilosis; [4]): 2.61 | median stasis free drug AUC0-168/MIC target (C. parapsilosis; [4]): 18.2 | survival ([1]; 5 mg/kg SC): increased survival when prophylaxis was given closer to challenge | increases in survival compared with vehicle ([1]; 5, 10 and 20 mg/kg SC on Day −5, −3 or −1): > 50% | survival ([1]; 10 and 20 mg/kg SC, any prophylaxis day): All animals in the 10 and 20 mg/kg groups survived | MEC50 [2]: 0.015 µg/mL | MEC90 [2]: 0.015 µg/mL | 14-day survival ([3]; 3 mg/kg SC 1 hour after infection): significant increase in the 14-day survival | symptoms of infection (body weight, hunched posture, ruffled fur, immobility, hypothermia) ([3]; 3, 10 and 30 mg/kg SC on Day −5, −3 and −1): improved | increase in the 14-day survival compared to the vehicle group ([3]; SC: 3 mg/kg Day −1, 10 mg/kg Day −5, −3, −1, 30 mg/kg Day −5, −3, −1): 50%
